Measurements taken from article PMC4729137, “Functional analysis of androgen receptor mutations that confer anti-androgen resistance identified in circulating cell-free DNA from prostate cancer patients” (Genome Biology, 2016).
Residue numbers refer to the chain shown, from its start.

What was measured:
[1] = molecular target: T1, E894K-AR (Homo sapiens, UniProt P10275, E894K); assay type: cell-based; details: AR mutant E894K; transfected PC3 cells; 0.1 nM R1881; drug 0 to 50 μM
T1 sequence (P10275 1-920 E894K): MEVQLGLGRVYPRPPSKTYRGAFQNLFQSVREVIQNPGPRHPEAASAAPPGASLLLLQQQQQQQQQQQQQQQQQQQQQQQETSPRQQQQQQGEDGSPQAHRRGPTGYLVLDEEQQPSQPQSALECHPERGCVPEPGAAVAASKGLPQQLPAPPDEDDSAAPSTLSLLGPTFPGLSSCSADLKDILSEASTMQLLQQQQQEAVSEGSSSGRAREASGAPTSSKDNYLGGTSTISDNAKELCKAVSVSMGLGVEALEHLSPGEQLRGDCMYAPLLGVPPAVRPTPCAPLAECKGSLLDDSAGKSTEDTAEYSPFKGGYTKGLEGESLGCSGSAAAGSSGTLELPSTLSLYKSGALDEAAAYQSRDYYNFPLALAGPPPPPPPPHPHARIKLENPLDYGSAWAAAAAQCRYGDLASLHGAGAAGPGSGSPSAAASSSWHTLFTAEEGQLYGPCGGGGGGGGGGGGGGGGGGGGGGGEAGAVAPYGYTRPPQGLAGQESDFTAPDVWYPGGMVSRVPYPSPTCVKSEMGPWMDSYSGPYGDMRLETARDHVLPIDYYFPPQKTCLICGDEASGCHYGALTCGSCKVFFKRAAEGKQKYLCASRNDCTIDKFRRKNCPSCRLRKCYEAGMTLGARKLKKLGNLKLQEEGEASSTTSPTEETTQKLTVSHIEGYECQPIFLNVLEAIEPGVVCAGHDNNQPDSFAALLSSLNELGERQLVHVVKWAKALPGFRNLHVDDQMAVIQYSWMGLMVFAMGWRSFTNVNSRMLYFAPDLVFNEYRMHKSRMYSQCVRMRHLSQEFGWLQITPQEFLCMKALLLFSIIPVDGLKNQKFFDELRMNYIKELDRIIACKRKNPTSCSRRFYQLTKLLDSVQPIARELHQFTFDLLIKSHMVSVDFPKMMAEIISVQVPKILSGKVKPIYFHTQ
Text: (§1) Full-length human AR (WT-AR) was encoded on a pcDNA3.1 expression plasmid (Life technologies). The LBD point mutations (single and multiple) were generated using the QuikChange II Site-Directed Mutagenesis Kit (Agilent Technologies) as per manufacturer’s instructions using WT-AR as the template. The mutagenic oligonucleotide primers were designed individually with the desired mutation in the middle of the primer with approximately 10 to 15 bases of correct sequence on both sides.
(§2) PC3 cells were seeded and transfected as described above. […] A non-stimulated/no R1881 control was used. After 24 h, cells were lysed and AR-dependent luciferase activity was quantified. Each concentration was assayed in quadruplicate n = 4, with a biological replicate of n = 3. Results were averaged and normalized by expressing them as a percentage of WT AR activity.

[2] = molecular target: T2, M896T-AR (Homo sapiens, UniProt P10275, M896T); assay type: cell-based; details: AR mutant M896T; transfected PC3 cells; 0.1 nM R1881; drug 0 to 50 μM
T2 sequence (P10275 1-920 M896T): T1 sequence (P10275 1-920 E894K) with K894E, M896T
Text: as §1, §2

SMILES: CC(C)(O)C(=O)Nc1ccc([N+](=O)[O-])c(C(F)(F)F)c1 [Hydroxyflutamide, hydroxyflutamide]
- Agonist response to treatment [1]: Partial
- Agonist response to treatment [2]: Partial
